Consider one compound from US7993921B2, “Cell cycle regulation and differentiation” (National Institutes of Health (NIH), priority 2007, dated 2011).

The test system of test [1] is KLF9, Hr, DBP, BHLHB5. The experiment in a line: Transcription factor induction by T3 in OPCs (Affymetrix Mouse Genomic 430 2.0 chips). The format is cell-based. On the procedure: FIG. 57. KLF9, Hr, DBP, and BHLHB5 are induced in OPCs by T3. Transcription factor probe sets were induced >2-fold by T3 at early time points relative to untreated (+PDGF −T3) controls. OPCs were treated with T3 for either 1 day or 6 days in vitro with T3 (+PDGF +T3), or for only 3 hours with T3 following 1 day or 6 days in vitro in media lacking T3 (+PDGF −T3, then 3 hours +PDGF +T3). All samples were labeled and hybridized to Affymetrix Mouse Genomic 430 2.0 chips.
In OPCs cultured in saturating amounts of mitogens and T3, a small number of transcription factors are rapidly and robustly regulated in response to T3 presentation (as compared to control cultures maintained in mitogens in the absence of T3). These four genes are 1) Kruppel-Like Factor 9 (KLF9), also known as Basic Transcription Element Binding protein 1(BTEB1), 2) basic helix-loop-helix domain containing, class B5 (BHLHB5), also known as Beta3, 3) Hairless, (Hr), or ALUNC, AU, N, ba, bldy, hr, rh, rh-bmh, rhino, and 4) D site albumin promoter binding protein (DBP). KLF9, Hr, and DBP are all induced (2-6 fold) rapidly in OPCs in response to T3, before the OPCs initiate differentiation in response to T3 presentation (FIG. 57).

For test [2], the system named is p57^Kip2. The experiment in a line: p57^Kip2 expression in OPCs (RT-PCR, immunostaining of clones). The format is cell-based, rat. From the text: p57^Kip2 was either over-expressed or reduced in levels in pure OPCs, and normal OL differentiation and OPC proliferation was observed. To test the necessity of p57^Kip2 in OL differentiation, knockdowns for p57^Kip2 were used to reduce p57^Kip2 levels in OPCs. p57^Kip2 levels were reduced by transfecting OPCs with siRNA directed against the p57^Kip2 transcript, and then cultured the transfected OPCs in media that stimulated OL differentiation. […] OPCs transfected with firefly luciferase- (cont) or p57^Kip2-targeting siRNA pools (Dharmacon) were cultured for 4 D.I.V. in −PDGF +T3 or +PDGF +T3 media and reduction in p57^Kip2 transcript levels by this method was confirmed by RT-PCR (27 cycles).
OL differentiation can be triggered by either by mitogen withdrawal or by the intrinsic timer coupled with exposure to T3 (Barres and Raff, Neuron 12:935-942 (1994)). Whereas either of these conditions will produce mature OLs, the initial genetic programs triggered by these two stimuli are not identical (Tokumoto et al., EMBO J. 20:5261-5268 (2001)). To more precisely determine how p57^Kip2 expression is induced, purified P8 OPCs were subjected to either mitogen withdrawal, T3 exposure, or both differentiation-promoting stimuli simultaneously (FIG. 48I). […]

Test [3] has as its system OPCs from the cortex and cerebellum. Description: Differentiation of OPCs from the cortex and cerebellum in response to T3. The format is cell-based, rat. The settings on record: 7 days in vitro +PDGF +T3. On the procedure: OPCs were purified via immunopanning specifically from the cortices or cerebellums of P7 Sprague-Dawley rats. These cells were then plated onto glass coverslips in the presence or absence of mitogens PDGF and NT3 (±PDGF) and presence or absence of thyroid hormone (±T3) and cultured for 3 (−PDGF) or 7 (+PDGF ±T3) days in vitro, with fresh media being supplied every 2-3 days. At the end of this time, cultures were stained for either CNPase expression (less mature) or MBP expression (more mature) as markers of OL differentiation. Percentages of healthy cells (as assessed by healthy nuclei visualized by DAPI staining) expressing indicated markers were quantified for each condition. […] All experiments analyzed in triplicate, ±S.E.M.

`N[C@@H](Cc1cc(I)c(Oc2ccc(O)c(I)c2)c(I)c1)C(=O)O` [T3, triiodothyronine]: the “KLF9, Hr and DBP induction in OPCs in response to T3” value in test [1] (+PDGF +T3 vs +PDGF −T3 controls) was 2-6 fold. The “transcription factor probe sets (KLF9, Hr, DBP, BHLHB5) induced by T3” value in test [1] (early time points relative to untreated (+PDGF −T3) controls) is greater than 2 fold. In test [1] (within 3 hours of T3 exposure), the “KLF9 induction by T3 in OPCs” value was 4 fold. For the same compound, in test [2] (7 days in +PDGF +T3 medium, clonal density), the “clones expressing uniformly high levels of p57^Kip2” value was 15 out of 23. The “p57^Kip2 expression by semi-quantitative RT-PCR” value in test [2] (T3 exposure, 6 DIV, purified P8 OPCs) is “did not induce”. Also, the “expression of mature OL proteins (CNPase, MBP) in cerebellar vs cortical OPCs in response to T3” value in test [3] is listed as “similarly”.
